Source: patent US11325899B2, “Benzofurane and benzothiophene derivatives as PGE2 receptor modulators” (IDORSIA PHARMACEUTICALS LTD, priority 2017, dated 2022)

Columns and labels:
PTGER2 (EP2) = target: T1, PTGER2 (EP2) (Homo sapiens, UniProt P43116); assay: hEP2 b-arrestin assay (PathHunter HEK 293 PTGER2 b-arrestin cells); assay type: cell-based; details: antagonistic activity, beta-arrestin assay; read-out: hEP2 b-arr IC50
T1 construct: host or cells: HEK 293 (PathHunter PTGER2 b-arrestin cell line)
T1 sequence (P43116 whole entry): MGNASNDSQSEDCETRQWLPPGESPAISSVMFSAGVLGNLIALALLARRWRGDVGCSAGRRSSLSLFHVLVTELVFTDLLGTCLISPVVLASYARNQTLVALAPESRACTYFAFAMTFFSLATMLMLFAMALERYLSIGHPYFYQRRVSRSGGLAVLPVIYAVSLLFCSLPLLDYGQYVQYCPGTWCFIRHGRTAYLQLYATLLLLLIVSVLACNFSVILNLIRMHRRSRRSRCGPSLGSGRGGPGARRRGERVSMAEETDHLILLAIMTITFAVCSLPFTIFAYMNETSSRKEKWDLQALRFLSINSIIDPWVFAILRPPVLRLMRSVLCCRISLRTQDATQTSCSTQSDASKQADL
Method in brief: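 PathHunter HEK293 cells with ProLink-tagged EP2 and EA-β-arrestin 2 preincubated 15 min at 37 °C with compound (10 μM-2 nM or 1 μM-0.2 nM), then stimulated 120 min with 5 μM PGE2 (EC80). β-gal complementation read by chemiluminescence; IC50 from duplicate dose-response versus DMSO.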

EP2 receptor = target: T2, EP2 receptor (Homo sapiens, UniProt P43116); assay: hEP2 cAMP assay (SF295 glioblastoma cells, HTRF cAMP, PGE2 stimulation); assay type: cell-based; details: antagonistic activity
T2 construct: SF295 glioblastoma cells express high endogenous EP2 and no EP4; host or cells: SF295 glioblastoma cells
T2 sequence (P43116 whole entry): as above
Method in brief: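 SF295 glioblastoma cells with endogenous EP2 and no EP4, in HBSS/HEPES/BSA with 2 mM IBMX, pre-incubated 45 min at room temperature with compound, then stimulated 30 min with 75 nM PGE2 (EC80). cAMP measured by HTRF; IC50 fitted from duplicate % cAMP versus DMSO control.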

SMILES	IC50 (PTGER2 (EP2)) [nM]	IC50 (EP2 receptor) [nM]
Cc1sc2c(C)ccc(F)c2c1CCNc1cc(-c2ccc(C(=O)O)c(OC3CCC3)c2)ncn1 [Example 136, 2-Cyclobutoxy-4-{6-[2-(4-fluoro-2,7-dimethyl-benzo[b]thiophen-3-yl)-ethylamino]-pyrimidin-4-yl}-benzoic acid]	13	91
CCc1oc2c(C)cc(F)cc2c1CCNc1cc(-c2cc(C)c(C(=O)O)s2)ncn1 [Example 7, 5-{6-[2-(2-Ethyl-5-fluoro-7-methyl-benzofuran-3-yl)-ethylamino]-pyrimidin-4-yl}-3-methyl-thiophene-2-carboxylic acid]	283	198
CCOc1nc(-c2cc(NCCc3c(C)sc4c(C)cc(F)cc34)ncn2)sc1C(=O)O [Example 160, 4-Ethoxy-2-{6-[2-(5-fluoro-2,7-dimethyl-benzo[b]thiophen-3-yl)-ethylamino]-pyrimidin-4-yl}-thiazole-5-carboxylic acid]	15	10
Cc1sc2c(C)cccc2c1CCNc1cc(-c2ccc(C(=O)O)cc2)ncn1 [Example 8, 4-{6-[2-(2,7-Dimethyl-benzo[b]thiophen-3-yl)-ethylamino]-pyrimidin-4-yl}-benzoic acid]	16	8
COc1ccc(F)c2c(CCNc3cc(-c4ccc(C(=O)O)c(OC5CCC5)c4)ncn3)c(C)oc12 [Example 139, 2-Cyclobutoxy-4-{6-[2-(4-fluoro-7-methoxy-2-methyl-benzofuran-3-yl)-ethylamino]-pyrimidin-4-yl}-benzoic acid]	51	245
Cc1sc2c(C)cc(F)cc2c1CCNc1cc(-c2ccc(C(=O)O)c(OC3CCC3)c2)ncn1 [Example 138, 2-Cyclobutoxy-4-{6-[2-(5-fluoro-2,7-dimethyl-benzo[b]thiophen-3-yl)-ethylamino]-pyrimidin-4-yl}-benzoic acid]	14	75
CCOc1nc(-c2cc(NCCc3c(C)sc4c(C)cc(F)cc34)ncn2)sc1-c1noc(=O)[nH]1 [Example 162, 3-(4-Ethoxy-2-{6-[2-(5-fluoro-2,7-dimethyl-benzo[b]thiophen-3-yl)-ethylamino]-pyrimidin-4-yl}-thiazol-5-yl)-[1,2,4]oxadiazol-5(4H)-one [tautomeric form: 3-(4-ethoxy-2-(6-((2-(5-fluoro-2,7-dimethylbenzo[b]thiophen-3-yl)ethyl)amino)pyrimidin-4-yl)thiazol-5-yl)-[1,2,4]oxadiazol-5-ol]]	6	35
Cc1sc2c(C)cc(F)cc2c1CCNc1cc(-c2ccc(C(=O)O)c(OCC(C)C)c2)ncn1 [Example 184, 4-{6-[2-(5-Fluoro-2,7-dimethyl-benzo[b]thiophen-3-yl)-ethylamino]-pyrimidin-4-yl}-2-isobutoxy-benzoic acid]	7	39
Cc1oc2c(C)cc(F)cc2c1CCNc1cc(-c2ccc(C(=O)O)c(OC3CCC3)c2)ncn1 [Example 140, 2-Cyclobutoxy-4-{6-[2-(5-fluoro-2,7-dimethyl-benzofuran-3-yl)-ethylamino]-pyrimidin-4-yl}-benzoic acid]	37	72
CCCCOc1cc(-c2cc(NCCc3c(C)sc4c(C)cc(F)cc34)ncn2)cc(F)c1C(=O)O [Example 144, 2-Butoxy-6-fluoro-4-{6-[2-(5-fluoro-2,7-dimethyl-benzo[b]thiophen-3-yl)-ethylamino]-pyrimidin-4-yl}-benzoic acid]	26	26
COc1ccc(F)c2c(CCNc3cc(-c4cc(F)c(C(=O)O)c(OC5CCC5)c4)ncn3)c(C)sc12 [Example 149, 2-Cyclobutoxy-6-fluoro-4-{6-[2-(4-fluoro-7-methoxy-2-methyl-benzo[b]thiophen-3-yl)-ethylamino]-pyrimidin-4-yl}-benzoic acid]	13	114
Cc1oc2c(Cl)cccc2c1CCNc1cc(-c2ccc(C(=O)O)c(OC3CCC3)c2)ncn1 [Example 137, 4-{6-[2-(7-Chloro-2-methyl-benzofuran-3-yl)-ethylamino]-pyrimidin-4-yl}-2-cyclobutoxy-benzoic acid]	15	49
Cc1oc2c(C)cc(F)cc2c1CCNc1cc(-c2ccc(C(=O)O)c(OC3CCCC3)c2)ncn1 [Example 154, 2-Cyclopentyloxy-4-{6-[2-(5-fluoro-2,7-dimethyl-benzofuran-3-yl)-ethylamino]-pyrimidin-4-yl}-benzoic acid]	47	70
COc1ccc(Cl)c2c(CCNc3cc(-c4cc(C)c(C(=O)O)s4)ncn3)c(C)sc12 [Example 5, 5-{6-[2-(4-Chloro-7-methoxy-2-methyl-benzo[b]thiophen-3-yl)-ethylamino]-pyrimidin-4-yl}-3-methyl-thiophene-2-carboxylic acid]	106	177
COc1ccc(Cl)c2c(CCNc3cc(-c4ccc(C(=O)O)c(OC5CCC5)c4)ncn3)c(C)sc12 [Example 135, 4-{6-[2-(4-Chloro-7-methoxy-2-methyl-benzo[b]thiophen-3-yl)-ethylamino]-pyrimidin-4-yl}-2-cyclobutoxy-benzoic acid]	14	30
COc1ccc(F)c2c(CCNc3cc(-c4ccc(C(=O)O)c(OC5CCC5)c4F)ncn3)c(C)sc12 [Example 146, 2-Cyclobutoxy-3-fluoro-4-{6-[2-(4-fluoro-7-methoxy-2-methyl-benzo[b]thiophen-3-yl)-ethylamino]-pyrimidin-4-yl}-benzoic acid]	47	47
CCc1nc(-c2cc(NCCc3c(C)sc4c(C)cc(F)cc34)ncn2)sc1-c1noc(=O)[nH]1 [Example 163, 3-(4-Ethyl-2-{6-[2-(5-fluoro-2,7-dimethyl-benzo[b]thiophen-3-yl)-ethylamino]-pyrimidin-4-yl}-thiazol-5-yl)-[1,2,4]oxadiazol-5(4H)-one [tautomeric form: 3-(4-ethyl-2-(6-((2-(5-fluoro-2,7-dimethylbenzo[b]thiophen-3-yl)ethyl)amino)pyrimidin-4-yl)thiazol-5-yl)-[1,2,4]oxadiazol-5-ol]]	26	20
COc1ccc(F)c2c(CCNc3cc(-c4ccc(C(=O)O)c(OC5CCC5)c4)ncn3)c(C)sc12 [Example 134, 2-Cyclobutoxy-4-{6-[2-(4-fluoro-7-methoxy-2-methyl-benzo[b]thiophen-3-yl)-ethylamino]-pyrimidin-4-yl}-benzoic acid]	27	46
CCOc1cc(-c2cc(NCCc3c(C)sc4c(C)cc(F)cc34)ncn2)sc1CCC(=O)O [Example 97, 3-(3-Ethoxy-5-{6-[2-(5-fluoro-2,7-dimethyl-benzo[b]thiophen-3-yl)-ethylamino]-pyrimidin-4-yl}-thiophen-2-yl)-propionic acid]	49	120

Now from value to compound:

IC50 (PTGER2 (EP2)) [nM]	IC50 (EP2 receptor) [nM]	SMILES
46	212	COc1ccc(Cl)c2c(CCNc3cc(-c4ccc(C(=O)O)c(OC5CCCC5)c4)ncn3)c(C)sc12 [Example 153, 4-{6-[2-(4-Chloro-7-methoxy-2-methyl-benzo[b]thiophen-3-yl)-ethylamino]-pyrimidin-4-yl}-2-cyclopentyloxy-benzoic acid]
30	35	COc1ccc(Cl)c2c(CCNc3cc(-c4ccc(C(=O)O)c(OC(F)F)c4)ncn3)c(C)sc12 [Example 116, 4-{6-[2-(4-Chloro-7-methoxy-2-methyl-benzo[b]thiophen-3-yl)-ethylamino]-pyrimidin-4-yl}-2-difluoromethoxy-benzoic acid]
79	111	CCOc1cc(-c2cc(NCCc3c(C)sc4c(C)ccc(F)c34)ncn2)cc(C)c1C(=O)O [Example 103, 2-Ethoxy-4-{6-[2-(4-fluoro-2,7-dimethyl-benzo[b]thiophen-3-yl)-ethylamino]-pyrimidin-4-yl}-6-methyl-benzoic acid]
20	101	CCOc1cc(-c2cc(NCCc3c(C)sc4c(OC)ccc(F)c34)ncn2)ccc1OCC(=O)O [Example 117, (2-Ethoxy-4-{6-[2-(4-fluoro-7-methoxy-2-methyl-benzo[b]thiophen-3-yl)-ethylamino]-pyrimidin-4-yl}-phenoxy)-acetic acid]
55	53	COc1ccc(Cl)c2c(CCNc3cc(-c4ccc(C(=O)O)c(OC(C)C)c4)ncn3)c(C)sc12 [Example 98, 4-{6-[2-(4-Chloro-7-methoxy-2-methyl-benzo[b]thiophen-3-yl)-ethylamino]-pyrimidin-4-yl}-2-isopropoxy-benzoic acid]
38	249	CCOc1cc(-c2cc(NCCc3c(C)sc4c(C)ccc(F)c34)ncn2)ccc1CC(=O)O [Example 107, (2-Ethoxy-4-{6-[2-(4-fluoro-2,7-dimethyl-benzo[b]thiophen-3-yl)-ethylamino]-pyrimidin-4-yl}-phenyl)-acetic acid]
118	44	COc1ccc(Cl)c2c(CCNc3cc(-c4ccc(C(=O)O)c(O)c4)ncn3)c(C)sc12 [Example 9, 4-{6-[2-(4-Chloro-7-methoxy-2-methyl-benzo[b]thiophen-3-yl)-ethylamino]-pyrimidin-4-yl}-2-hydroxy-benzoic acid]
16	112	CCOc1cc(-c2cc(NCCc3c(C)sc4c(C)ccc(F)c34)ncn2)ccc1OCC(=O)O [Example 118, (2-Ethoxy-4-{6-[2-(4-fluoro-2,7-dimethyl-benzo[b]thiophen-3-yl)-ethylamino]-pyrimidin-4-yl}-phenoxy)-acetic acid]
